Here are results for six compounds from ChEMBL document CHEMBL4038308, “Lipophosphonoxins II: Design, Synthesis, and Properties of Novel Broad Spectrum Antibacterial Agents” (J Med Chem, 2017).

Molecules are shown by their SMILES. Values after ≈ are worked out from the molar mass of the structure shown. Where only a bound is given, the exact number is not on record here.

For assay [1], the system named is Escherichia coli. The experiment in a line: Antibacterial activity against Escherichia coli CCM 3954 after 24 hrs by microdilution method. The assay is classed as functional. To be noted: CCM 3954, 24 h. A general note: Broth dilution looks for growth in wells or tubes with falling amounts of substance.
Assay [2] relates to Staphylococcus aureus. Description: Antibacterial activity against Staphylococcus aureus CCM 4223 after 24 hrs by microdilution method. The format is functional. To be noted: CCM 4223, 24 h.
In assay [3] the test system is Staphylococcus aureus. The experiment in a line: Antibacterial activity against methicillin-resistant Staphylococcus aureus 4591 clinical isolates after 24 hrs by microdilution method. The following applies: Staphylococcus aureus, 4591, 24 h. The assay is classed as functional.
The test system of assay [4] is Bacillus subtilis. Description: Antibacterial activity against Bacillus subtilis after 24 hrs by microdilution method. The assay is classed as functional.
Assay [5] has as its system Escherichia coli. Description: Antibacterial activity against Escherichia coli 16702 after 24 hrs by microdilution method. The following applies: Escherichia coli, 16702, 24 h. The format is functional.
For assay [6], the system named is Staphylococcus haemolyticus. Description: Antibacterial activity against fluoroquinolne-resistant Staphylococcus haemolyticus 16568 after 24 hrs by microdilution method. The following applies: Staphylococcus haemolyticus, 16568, 24 h. The format is functional.
The test system of assay [7] is Streptococcus agalactiae. Description: Antibacterial activity against Streptococcus agalactiae after 24 hrs by microdilution method. The assay is classed as functional.
The subject of assay [8] is Enterococcus faecium. The experiment in a line: Antibacterial activity against vancomycin-resistant Enterococcus faecium 419/ana clinical isolates after 24 hrs by microdilution method. The assay is classed as functional.
Assay [9] relates to Pseudomonas aeruginosa. Description: Antibacterial activity against Pseudomonas aeruginosa CCM 3955 after 24 hrs by microdilution method. The assay is classed as functional. The following applies: CCM 3955, 24 h.
Assay [10] concerns Salmonella enteritidis. The experiment in a line: Antibacterial activity against Salmonella enteritidis S2-25 after 24 hrs by microdilution method. The format is functional, Salmonella enterica subsp. enterica serovar Enteritidis. The following applies: Salmonella enterica, S2-25, 24 h.
Assay [11] relates to Enterococcus faecalis. The experiment in a line: Antibacterial activity against Enterococcus faecalis CCM 4224 after 24 hrs by microdilution method. The assay is classed as functional. The following applies: CCM 4224, 24 h.
The subject of assay [12] is Acinetobacter baumannii. Description: Antibacterial activity against Acinetobacter baumannii A3-08 after 24 hrs by microdilution method. The following applies: A3-08, 24 h. The assay is classed as functional.
For assay [13], the system named is Burkholderia multivorans. The experiment in a line: Antibacterial activity against Burkholderia multivorans after 24 hrs by microdilution method. The assay is classed as functional.
Assay [14] has as its system Staphylococcus epidermidis. The experiment in a line: Antibacterial activity against Staphylococcus epidermidis 8700/B after 24 hrs by microdilution method. The assay is classed as functional.
For assay [15], the system named is Stenotrophomonas maltophilia. The experiment in a line: Antibacterial activity against Stenotrophomonas maltophilia S2-23 after 24 hrs by microdilution method. The assay is classed as functional. The following applies: S2-23, 24 h.
For assay [16], the system named is Pseudomonas aeruginosa. The experiment in a line: Antibacterial activity against Pseudomonas aeruginosa 16575 after 24 hrs by microdilution method. The format is functional. The following applies: Pseudomonas aeruginosa, 16575, 24 h.

In the case of `CCCCCCCCCCCCCCCCOP(=O)(CCN(CCCN)CCCN)OC[C@H]1O[C@@H](n2ccc(=O)[nH]c2=O)[C@H](O)[C@@H]1O` (stereo partly specified), the MIC (in general, the lowest concentration found to suppress growth) in assay [1] was found to be 3.13 µg/mL (≈ 4.54 µM); in [2], 12.5 µg/mL (≈ 18.1 µM); in assay [3] it was 25 µg/mL (≈ 36.2 µM); in [4] it was 0.78 µg/mL (≈ 1.13 µM); in assay [5], 3.13 µg/mL (≈ 4.54 µM); in assay [6] it was 3.13 µg/mL (≈ 4.54 µM). Moreover, the MIC in assay [7] was 3.13 µg/mL (≈ 4.54 µM); in assay [8] it was 25 µg/mL (≈ 36.2 µM); in assay [9], 6.25 µg/mL (≈ 9.06 µM); in assay [10], 3.13 µg/mL (≈ 4.54 µM); in assay [11] it was 50 µg/mL (≈ 72.5 µM); in assay [12], 3.13 µg/mL (≈ 4.54 µM). Also, the MIC worked out at 50 µg/mL (≈ 72.5 µM) in assay [13], 3.13 µg/mL (≈ 4.54 µM) in assay [14], 3.13 µg/mL (≈ 4.54 µM) in assay [15] and 3.13 µg/mL (≈ 4.54 µM) in assay [16].
As to `CCCCCCCCCCCCCCCOP(=O)(CCN1CCC(N)C1)OC[C@H]1O[C@@H](n2ccc(=O)[nH]c2=O)[C@H](O)[C@@H]1O` (stereo partly specified), the MIC in assay [1] turned out to be 6.25 µg/mL (≈ 9.91 µM); in [2] it was 6.25 µg/mL (≈ 9.91 µM); in [3], 6.25 µg/mL (≈ 9.91 µM); in assay [4], 3.13 µg/mL (≈ 4.96 µM); in [5] it was 6.25 µg/mL (≈ 9.91 µM); in assay [6] it was 6.25 µg/mL (≈ 9.91 µM). For the same compound, the MIC in [7] is 3.13 µg/mL (≈ 4.96 µM); in [8], 25 µg/mL (≈ 39.6 µM); in assay [9], 12.5 µg/mL (≈ 19.8 µM); in assay [10], 6.25 µg/mL (≈ 9.91 µM); in assay [11], 6.25 µg/mL (≈ 9.91 µM); in assay [12] it was 6.25 µg/mL (≈ 9.91 µM). Besides, the MIC in [13] was determined as 50 µg/mL (≈ 79.3 µM); in [14], 6.25 µg/mL (≈ 9.91 µM); in assay [15], 6.25 µg/mL (≈ 9.91 µM); in assay [16], 12.5 µg/mL (≈ 19.8 µM).
Take `CCCCCCCCCCCCCOP(=O)(CCN(CCCNC(=N)N)CCCNC(=N)N)OC[C@H]1O[C@@H](n2ccc(=O)[nH]c2=O)[C@H](O)[C@@H]1O` (stereo partly specified): the MIC in assay [1] is 12.5 µg/mL (≈ 17.1 µM); in assay [2] it was 6.25 µg/mL (≈ 8.54 µM); in assay [3], 12.5 µg/mL (≈ 17.1 µM); in assay [4], 1.56 µg/mL (≈ 2.13 µM); in assay [5] it was 12.5 µg/mL (≈ 17.1 µM); in assay [6], 3.13 µg/mL (≈ 4.28 µM). Besides, the MIC stood at 3.13 µg/mL (≈ 4.28 µM) in assay [7]; 50 µg/mL (≈ 68.3 µM) in assay [8]; 3.13 µg/mL (≈ 4.28 µM) in assay [9]; 12.5 µg/mL (≈ 17.1 µM) in assay [10]; 25 µg/mL (≈ 34.2 µM) in assay [11]; 25 µg/mL (≈ 34.2 µM) in assay [12]. Moreover, the MIC in [13] worked out at 50 µg/mL (≈ 68.3 µM); in [14], 6.25 µg/mL (≈ 8.54 µM); in assay [15], 25 µg/mL (≈ 34.2 µM); in assay [16], 25 µg/mL (≈ 34.2 µM).
In the case of `CCCCCCCCCCCCCCCOP(=O)(CCN(CCN)CCN)OC[C@H]1O[C@@H](n2ccc(=O)[nH]c2=O)[C@H](O)[C@@H]1O` (stereo partly specified), the MIC in assay [1] was found to be 1.56 µg/mL (≈ 2.41 µM); in assay [2] it was 6.25 µg/mL (≈ 9.65 µM); in assay [3], 6.25 µg/mL (≈ 9.65 µM); in assay [4], 0.78 µg/mL (≈ 1.2 µM); in assay [5] it was 1.56 µg/mL (≈ 2.41 µM); in [6], 1.56 µg/mL (≈ 2.41 µM). The MIC in [7] is 3.13 µg/mL (≈ 4.83 µM); in assay [8], 100 µg/mL (≈ 154 µM); in [9], 1.56 µg/mL (≈ 2.41 µM); in [10], 1.56 µg/mL (≈ 2.41 µM); in assay [11], 12.5 µg/mL (≈ 19.3 µM); in assay [12], 3.13 µg/mL (≈ 4.83 µM). The MIC in [13] was found to be 50 µg/mL (≈ 77.2 µM); in assay [14] it was 1.56 µg/mL (≈ 2.41 µM); in assay [15] it was 3.13 µg/mL (≈ 4.83 µM); in assay [16] it was 1.56 µg/mL (≈ 2.41 µM).
Turning to `CCCCCCCCCCCCOP(=O)(CCN(CCCN)CCCN)OC[C@H]1O[C@@H](n2ccc(=O)[nH]c2=O)[C@H](O)[C@@H]1O` (stereo partly specified), the MIC in assay [1] is 25 µg/mL (≈ 39.4 µM); in assay [2], 25 µg/mL (≈ 39.4 µM); in [3], 200 µg/mL (≈ 316 µM); in assay [4], 3.13 µg/mL (≈ 4.94 µM); in assay [5], 25 µg/mL (≈ 39.4 µM); in assay [6], 200 µg/mL (≈ 316 µM). Besides, the MIC in [7] was found to be 3.13 µg/mL (≈ 4.94 µM); in assay [8], 25 µg/mL (≈ 39.4 µM); in assay [9], 3.13 µg/mL (≈ 4.94 µM); in assay [10] it was 6.25 µg/mL (≈ 9.86 µM); in assay [11], 100 µg/mL (≈ 158 µM); in [12], 6.25 µg/mL (≈ 9.86 µM). Moreover, the MIC is above 200 µg/mL in [13], 6.25 µg/mL (≈ 9.86 µM) in assay [14], 6.25 µg/mL (≈ 9.86 µM) in assay [15] and 50 µg/mL (≈ 78.9 µM) in assay [16].
As for `CCCCCCCCCCCCCCCOP(=O)(CCN(CCNC(=N)N)CCNC(=N)N)OC[C@H]1O[C@@H](n2ccc(=O)[nH]c2=O)[C@H](O)[C@@H]1O` (stereo partly specified), the MIC was 3.13 µg/mL (≈ 4.28 µM) in assay [1]; 6.25 µg/mL (≈ 8.54 µM) in assay [2]; 6.25 µg/mL (≈ 8.54 µM) in [3]; 3.13 µg/mL (≈ 4.28 µM) in assay [4]; 3.13 µg/mL (≈ 4.28 µM) in assay [5]; 6.25 µg/mL (≈ 8.54 µM) in assay [6]. Also, the MIC in assay [7] turned out to be 3.13 µg/mL (≈ 4.28 µM); in assay [8], 50 µg/mL (≈ 68.3 µM); in assay [9], 6.25 µg/mL (≈ 8.54 µM); in assay [10], 3.13 µg/mL (≈ 4.28 µM); in assay [11] it was 25 µg/mL (≈ 34.2 µM); in assay [12], 6.25 µg/mL (≈ 8.54 µM). In addition, the MIC in assay [13] is 12.5 µg/mL (≈ 17.1 µM); in assay [14] it was 3.13 µg/mL (≈ 4.28 µM); in assay [15] it was 3.13 µg/mL (≈ 4.28 µM); in assay [16] it was 6.25 µg/mL (≈ 8.54 µM).
